In patent US8691943B2, “Antimicrobial activity of chicken NK-2 peptide against apicomplexan protozoa” (priority 2011, dated 2014):
Where no end group is shown, it is not given here.

Key:
[1] = system: E. acervulina sporozoites; experiment: Eimeria acervulina sporozoite viability by trypan blue exclusion; format: cell-based; conditions: for effect on E. acervulina sporozoites viability: peptide 1 μM to 10 μM, 1 h, 3 h, 6 h at 41° C.
Procedure: FIG. 1 depicts the cytotoxic activity of chicken NK-lysin peptides for Eimeria acervulina sporozoites. E. acervulina sporozoites (2×10^6/ml) were incubated with control medium (HBSS) and 4 kinds of NK-lysin peptides (50 ug/ml, 100 ug/ml) for 3 h at 41° C. Sporozoite viability was assessed by trypan blue exclusion. Experiments were done in triplicate and considered significant at P<0.01.
For investigating the kinetics of NK-lysin peptides, E. acervulina sporozoites (1.5×10^6/ml) were incubated with NK-lysin-transfected COS7 cell supernatant (1:1 dilution) and various concentrations of melittin, cNK-2 or cNK-4 for 1 h, 3 h and 6 h at 41° C.; sporozoite viability was assessed by trypan blue exclusion. Experiments were performed in triplicate.
E. acervulina sporozoites were obtained by excystation of sporulated oocysts (Dulski and Turner. 1988. Avian Dis. 32:235-239). After breaking the oocyst membrane with 0.5 mm glass beads by Mini-beadbeater (BioSpec Products Inc., Bartlesville, Okla.), sporocysts were purified by isopycnic centrifugation on a Percoll gradient, washed in cold PBS, then treated with excystation solution (0.25% trypsin, 0.014 M taurocholic acid) for 30 min at 41° C. to release sporozoites. Excystation fluid was filtered and the sporozoites were washed 3 times with cold HBSS at 3,000 rpm for 10 min at 4° C. and resuspended to 1.0×10^6/ml in HBSS or 10% RPMI-1640 medium (Sigma) (Hong et al. 2008, supra). The sporozoites were incubated for 1 h, 3 h or 6 h at 41° C. with NK-lysin-transfected COS7 cell supernatants, melittin or synthetic chicken NK-lysin peptides, stained with trypan blue, and viable sporozoites were counted microscopically.
To compare the effect of four kinds of chicken NK-lysin peptides on Eimeria acervulina sporozoites, Eimeria sporozoites were incubated in 50 μg/ml and 100 ug/ml of each peptide for 3 h at 41° C., respectively. The HBSS was used as a control. […] In contrast, other peptides or control didn't kill Eimeria sporozoites (FIG. 1).
We next investigated the cytolytic activity of cNK-2 lytic peptide at increasing concentrations from 1 μM to 10 μM (FIG. 2). Melittin was used as a positive control to gain peptide-induced lysis in the absence of a phospholipid preference (Dempsey, C. E. 1990. Biochim. Biophys. Acta 1031:143-161).

[2] = system: E. coli strain BMH71-18; experiment: Bactericidal activity, broth microdilution assay (OD600); format: cell-based; conditions: peptides 0-40 μg/ml, 18 h
Procedure: Ampicillin (0-20 μg/ml), chicken NK-lysin peptides (0-40 μg/ml), or LB broth alone were added to cultures of the bacteria and incubated for 18 h at […]. Bacterial growth was determined by measuring OD600. X axis: Ampicillin concentrations.
To evaluate the bactericidal activity of NK-lysin peptides, the minimum inhibitory concentration (MIC) values of the purified recombinant protein against E. coil strain BMH71-18 were determined using a standardized broth microdilution assay. Ampicillin MIC values against the bacteria were determined in parallel as positive controls. The assays were performed in accordance with Clinical and Laboratory Standards Institute (CLSI; Formerly National Committee for Clinical Laboratory Standards [NCCLS]) guidelines (NCCLS. 1999. In: Methods for Determining Bacterial Activity of Antimicrobial Agents, NCCLC, Wayne, Pa.; NCCLS. 2002. In: Performance Standards for Antimicrobial Disk and Dilution Susceptibility Tests for Bacteria isolated from Animals; Approved Standard, 2nd ed. NCCLS, Wayne, Pa.). […] The wells were incubated for 18 h at 37° C. with ambient air circulation and without shaking, and the optical density (OD) of each well was measured on a Synergy HT™ multi-modal plate reader (Bio-Tec Instruments, Winooski, Vt.) at 600 nm. Background values, derived from non-inoculated wells containing broth alone, were subtracted from all readings.

[3] = system: E. maxima; experiment: Membrane permeabilization in E. maxima (data not shown); format: cell-based, Eimeria maxima
[4] = system: C. parvum sporozoites; experiment: Cryptosporidum parvum sporozoite viability by two-component fluorescent dye exclusion assay; format: cell-based; conditions: 0.017, 0.17, 17 and 170 μg/ml; 2 hrs incubation; P<0.01 at 170 μg/ml, P<0.05 at the others
Procedure: FIG. 4 depicts the effect of NK lysine on Cryptosporidum parvum sporozoites. Freshly prepared C. parvum sporozoites were incubated with different doses of cNK-2 for […] and Cryptosporidia sporozoite viability was measured by a two-component fluorescent dye exclusion assay (LIVE/DEAD Reduced Biohazard Viability/Cytotoxicity Kits, Molecular Probes L-7013). The result is presented as the means plus standard deviations. Statistical analysis was performed by the paired t-test with the Statcel2 software. The level of significance was set at a P value of <0.05.
C. parvum sporozoites were prepared as described with modifications (Riggs and Perryman. 1987. Infect. Immun. 55:2081-2087). The C. parvum sporozoites were incubated with various concentrations of cNK-2 peptides or BSA and viability was assessed after 2 hrs of incubation. Viability of the sporozoites was measured by a two-component fluorescent dye exclusion assay (LIVE/DEAD Reduced Biohazard Viability/Cytotoxicity Kits, Molecular Probes L-7013). Results are presented as the means plus standard deviations. […] Statistical analysis was performed with the Statcel2 software.

[5] = system: N. caninum tachyzoites; experiment: Neospora caninum tachyzoite viability by trypan blue exclusion; format: cell-based; conditions: 41° C.; for tachyzoites killed: 1 h incubation; for tachyzoites killing: 3 h incubation
Procedure: FIG. 3 depicts the dose- and time-dependant effects of chicken cNK-2 peptide on Neospora caninum tachyzoites. For investigating kinetics of NK-lysin peptides, N. caninum tachyzoites (1.0×10^7/ml) were incubated with medium (control) and two different concentrations (5 uM and 10 uM) of cNK-2 for 1 h and 3 h at 41° C.; tachyzoite viability was assessed by trypan blue exclusion. Experiments were performed in triplicate. RPMI medium alone served as the negative control. Data were expressed as means±SEM. Differences were considered statistically significant at P<0.05 by the Duncan's multiple range test.
N. caninum tachyzoites were prepared as described with modifications (Tuo et al. 2005. Infect. Immun. 73:5093-5100). N. caninum (NC-1 isolate) tachyzoites were cultured on bovine monocytes (Lindsay and Dubey. 1989. J. Parasitol. 75:163-165) in RPMI 1640 medium supplemented with 2% fetal calf serum and 50 μg/ml gentamicin at 37° C. in a 95% air and 5% CO2 atmosphere. N. caninum tachyzoite-infected host cells were collected, passed through 20- and 27-gauge needles, and pelleted by centrifugation at 1,000×g for 20 min at 4° C. Tachyzoites were then purified by centrifugation over a 40% Percoll gradient at 2,000×g for 30 min at 4° C. The tachyzoite pellet was then resuspended in PBS (pH 7.4) and washed three times. Finally tachyzoites were resuspended to 5.0×10^6/ml in 10% RPMI-1640 medium (Sigma). The tachyzoites were incubated for 1 h or 3 h at 41° C. with synthetic chicken NK-lysin peptides (5 μM and 10 μM), stained with trypan blue, and viable tachyzoites were counted microscopically.

[6] = system: E. acervulina oocysts; experiment: In ovo plus intraperitoneal administration, protection against live oral E. acervulina challenge; format: in vivo, chickens
Procedure: FIGS. 6A and 6B depict the effect of cNK-2 treatment on body weight gains of birds infected with E. acervulina. At 1 day post-hatch, the chickens were infected with 500 sporulated oocysts of E. acervulina. Body weights were assessed at 5 days (FIG. 6A) and 10 days (FIG. 6B) post-infection. […] Each bar represents the mean±SEM values.
FIG. 7 depicts the effect of cNK-2 treatment on fecal oocyst shedding after oral challenge infection with live E. acervulina. At 1 day post-hatch, chickens were infected with 500 sporulated oocysts of E. acervulina and fecal oocysts were measured starting from day 5 to day 10 post-infection. Each bar represents the mean±SEM values.
For protection studies, broiler eggs at the 18-day-old embryo stage were allocated into 4 groups of 12 eggs each. An in ovo injector was used to inoculate eggs. The two control groups (Groups 1 and 2) received no NK lysin peptide and were mock inoculated with Hanks Balanced Salt Solution (HBSS) only. Two groups were inoculated with an in ova injection of cNK-2 peptide (ARS005-1; RD-27) at doses of 1 μg/embryo (Group 3) or 5 μg/embryo (Group 4). Three days later, birds were hatched and moved to brooder petersime units. Birds of Groups 3 and 4 were given a second injection with cNK-2 peptide at doses of 1 μg/bird and 5 μg/bird, respectively, using an intraperitoneal route as shown in Table 2. Birds that had been injected in ova with HBSS alone were not given an additional intraperitoneal injection (Table 2).
At one day post hatch, the birds from Groups 2, 3 and 4 were challenged orally with 500 sporulated, live Eimeria acervulina oocysts. Body weights were measured at 1 day post hatch, i.e., on the day of challenge (coccidia infection), at 5 days (FIG. 6A) and at 10 days (FIG. 6B) post-infection.
The effect of cNK-2 peptide on fecal oocyst shedding was also determined. […] Oocysts were collected between 5 and 10 days post infection and the number were counted using an established method (FIG. 7).

[7] = system: E. tenella; experiment: Membrane permeabilization in E. tenella (data not shown); format: cell-based, Eimeria tenella

cNK-4: synthetic chicken NK-lysin peptide (88-117), AINNALNKVCSTGRRQRSICKQLLKKLRQQ, SEQ ID NO. 4 (listed as Gallus gallus)
effect on E. acervulina sporozoites viability [1]: no effect | antimicrobial activity against bacterial growth [2]: Neither chicken NK-lysin nor the NK-lysin peptides, cNK-2 and cNK-4, demonstrated antimicrobial activity

RRQRSICKQLLKKLRQQLSDALQNNDD-NH2 [cNK-2]
membrane permeabilization [3]: caused membrane permeabilization | viability of C. parvum sporozoites [4]: significant decreases in the viability | killing of E. acervulina sporozoites (viability, trypan blue) ([1]; 50 μg/ml or 100 μg/ml peptide, 3 h at 41° C., HBSS control, P<0.01): significantly killed | effect on E. acervulina sporozoites viability [1]: time- and dose-dependent effect | tachyzoites killed ([5]; 5 uM): about 46% | tachyzoites killing ([5]; 5 uM): 71% | tachyzoites killed ([5]; 10 uM): ~60% | tachyzoites killing ([5]; 10 uM): 86% | body weights of infected birds compared with HBSS control birds ([6]; 1 μg and 5 μg in ovo then intraperitoneal, 5 and 10 days post-infection, 500 oocysts, P<0.05): significantly higher body weights | fecal oocyst shedding ([6]; dose of at least 5 μg, oocysts collected 5 to 10 days post infection, P<0.05): significant reduction of fecal oocyst shedding | protective effect against live oral challenge infection ([6]; in ovo injections followed by intraperitoneal injections, 500 E. acervulina oocysts): significant protective effect | antimicrobial activity against bacterial growth [2]: Neither chicken NK-lysin nor the NK-lysin peptides, cNK-2 and cNK-4, demonstrated antimicrobial activity | membrane permeabilization [7]: caused membrane permeabilization

CC[C@H](C)[C@H](NC(=O)CN)C(=O)NCC(=O)N[C@@H](C)C(=O)N[C@H](C(=O)N[C@@H](CC(C)C)C(=O)N[C@@H](CCCCN)C(=O)N[C@H](C(=O)N[C@@H](CC(C)C)C(=O)N[C@H](C(=O)N[C@H](C(=O)NCC(=O)N[C@@H](CC(C)C)C(=O)N1CCC[C@H]1C(=O)N[C@@H](C)C(=O)N[C@@H](CC(C)C)C(=O)N[C@H](C(=O)N[C@@H](CO)C(=O)N[C@@H](Cc1c[nH]c2ccccc12)C(=O)N[C@H](C(=O)N[C@@H](CCCCN)C(=O)N[C@@H](CCCNC(=N)N)C(=O)N[C@@H](CCCCN)C(=O)N[C@@H](CCCNC(=N)N)C(=O)N[C@@H](CCC(N)=O)C(=O)N[C@@H](CCC(N)=O)C(N)=O)[C@@H](C)CC)[C@@H](C)CC)[C@@H](C)O)[C@@H](C)O)C(C)C)C(C)C [Melittin, reference compound]
cytolytic effect on E. acervulina sporozoites ([1]; melittin positive control at 2.5 μM and 5 μM): total disruption of the cellular membrane
